This is an account of results in patent US20200131476A1, “Differentiation Of Immunocytes Using Pluripotent Stem Cells” (Korea Center For Disease Control And Prevention, priority 2017, published 2020).

In this assay the test system is pluripotent stem cells. The experiment in a line: Differentiation of pluripotent stem cells into CD34+CD45+ hematopoietic stem cells (FACS). The class given is cell-based. From the text: 1) Pluripotent stem cells were adapted to a matrigel-coated dish and a mTeSR1 medium for 3 weeks, and then other colonies except for 5 colonies in 35 pi dish were removed by pipetting. This is a process for providing space for the proliferation of differentiated cells in the future. At this time, when vitronectin is used as a coating material or mTeSR8 is used as a medium, the differentiation of hematopoietic stem cells or macrophages can be induced.
2) The medium for culturing the stem cells used in 1) above was replaced with APEL medium. […] The differentiation into mesodermal cells was induced rapidly by treating with BMP4 at a high concentration (100 ng/ml) for 2 days and then sequentially at a low concentration (20 ng/ml) for 2 days.
In addition, the efficiency of differentiation of hematopoietic stem cells can be increased by treating with the CDDO methyl ester compound together with BMP4 for 4 days. […]
CD34+ and CD45+ are markers specifically expressed in hematopoietic stem cells. […] In order to confirm this, the amount of expression of the markers specifically expressed in hematopoietic stem cells was measured.
The differentiated cells were monolayered and reacted with the antibodies CD34 and CD45 labeled with fluorescence. […]

Consider `COC(=O)[C@]12CCC(C)(C)C[C@H]1[C@H]1C(=O)C=C3[C@@]4(C)C=C(C#N)C(=O)C(C)(C)[C@@H]4CC[C@@]3(C)[C@]1(C)CC2` [CDDO methyl ester, 2-cyano-3,12-dioxooleana-1,9(11)-dien-28-oic acid methyl ester], for which the “efficiency of differentiation of hematopoietic stem cells, increase” value (50 nM added together with BMP4 for 4 days, versus no CDDO methyl ester, FIG. 4) was “about 3 times”. For the same compound, the “yield of hematopoietic stem cells” value (further treating with the compound in the BMP4 treatment step) is “improved by three times or more”.
